Results from patent US9090944B2, “Biomarker DACT1 for gastric cancer” (The Chinese University of Hong Kong, priority 2011, dated 2015).

Tests used:
[1] = test system: KatoIII; experiment: Demethylation treatment with 5-Aza, DACT1 expression by semiquantitative RT-PCR; format: cell-based, human; conditions: 2 μM 5-Aza for 5 days
Experimental: (§1) Semiquantitative RT-PCR was performed in a total volume of 25 μL reaction containing GeneAmp 1×PCR Buffer II (Applied Biosystems), 2.5 mM MgCl2, 200 μM each of dNTP, 200 nM each of primers, 0.5 U of AmpliTaq Gold DNA polymerase (Applied Biosystems) and 30˜50 ng cDNA. The PCR program started with an initial denaturation at 95° C. for 10 min, followed by 32-35 cycles (94° C. for 30 sec, annealing temperature for 30 sec, and 72° C. for 30 sec) of amplification, with a final extension at 72° C. for 10 min. The PCR bands were visualized under ultraviolet light and photographed. The expression of the target gene was normalized by the expression of house keeping gene β-actin, which served as an internal control. Cells were seeded at a density of […]/100-mm dishes and grew for 24 hr. Cells were then treated with 2 μM 5-aza-2′-deoxycytidine (“5-Aza”) (Sigma-Aldrich) for 5 days. The 5-Aza was replenished every day. The gene expression of DACT1 was evaluated using semiquantitative RT-PCR.

[2] = test system: AGS; experiment: as above; format: cell-based, human; conditions: 2 μM 5-Aza for 5 days
Experimental: as §1

`Nc1ncn([C@H]2C[C@H](O)[C@@H](CO)O2)c(=O)n1` [5-Aza, 5-aza-2′-deoxycytidine] was tested, and the “DACT1 expression after demethylation treatment” value [1] was “restored DACT1 expression” and the “DACT1 expression after demethylation treatment” value [2] was “restored DACT1 expression”.
